The nature of data set [1]: Docetaxel dissolution study, methanol/water 15/85, USP Apparatus II. It is filed as physicochemical. To be noted: methanol/water 15/85 (v/v), 37° C., pH 7, USP Apparatus II 75 rpm. How it is done:
The procedures used to determine the dissolution rates are as follows. […] Beads were transferred to a stainless steel mesh container and placed in the dissolution bath containing methanol/water 50/50 (v/v) media at 37° C., pH 7, and a USP Apparatus II (Paddle), operating at 75 rpm. At 10, 20, 30, 60, and 90 minutes, a 5 mL aliquot was removed, filtered through a 0.22 μm filter and analyzed on a UV/VIS spectrophotometer at 227 nm. Absorbance values of the samples were compared to those of standard solutions prepared in dissolution media to determine the amount of material dissolved. […] At 5, 15, 30, 60, 120 and 225 minutes, a 5 mL aliquot was removed, filtered through a 0.22 μm filter, and analyzed on a UV/VIS spectrophotometer at 232 nm. Absorbance values of the samples were compared to those of standard solutions prepared in dissolution media to determine the amount of material dissolved.
At 5, 15, 30, 60, 120 and 225 minutes, a 5 mL aliquot was removed, filtered through a 0.22 μm filter, and analyzed on a UV/VIS spectrophotometer at 232 nm. Absorbance values of the samples were compared to those of standard solutions prepared in dissolution media to determine the amount of material dissolved.

A short description of data set [2]: Particle size analysis (light obscuration / laser diffraction). Format: physicochemical. How it is done:
Particle size was analyzed by both light obscuration and laser diffraction methods. An Particle Sizing Systems AccuSizer 780 SIS system was used for the light obscuration method and Shimadzu SALD-7101 was used for the laser diffraction method.
The vials were vortexed for approximately 10 seconds and then sonicated in a sonic bath approximately 1 minute.
The vial was vortexed for approximately 10 seconds and then sonicated in a sonic bath for approximately 2 minutes. This suspension was used for laser diffraction analysis. Unused suspension was poured into a 125 mL particle-free plastic bottle, which was then filled to approximately 100 mL with filtered dispersant. The suspension was vortex for approximately 10 seconds and then sonicated in the sonic bath for approximately 2 minutes. This diluted suspension was used for light obscuration analysis.
A background test was first performed prior to analyzing particles on the AccuSizer 780 SIS. A new particle-free plastic bottle was filled with blank suspension solution by pumping from a reservoir, using a peristaltic pump, through a 0.22 μm Millipore filter and into the bottle. A background analysis was run to ensure the particle/mL count was below 100 particles/mL. […] Once the analysis was completed, the background data was removed and any measurement with less than four counts was removed. […]

Data set [3] is described as follows: Paclitaxel dissolution study, methanol/water 50/50, USP Apparatus II. The note with it: methanol/water 50/50 (v/v), 37° C., pH 7, USP Apparatus II 75 rpm. Format: physicochemical. How it is done: Beads were transferred to a stainless steel mesh container and placed in the dissolution bath containing methanol/water 50/50 (v/v) media at 37° C., pH 7, and a USP Apparatus II (Paddle), operating at 75 rpm. […] Absorbance values of the samples were compared to those of standard solutions prepared in dissolution media to determine the amount of material dissolved. […] Absorbance values of the samples were compared to those of standard solutions prepared in dissolution media to determine the amount of material dissolved.
Beads were transferred to a stainless steel mesh container and placed in the dissolution bath containing methanol/water 50/50 (v/v) media at 37° C., pH 7, and a USP Apparatus II (Paddle), operating at 75 rpm. […] Absorbance values of the samples were compared to those of standard solutions prepared in dissolution media to determine the amount of material dissolved.

Data set [4] can be described thus: BET specific surface area analysis. Format: physicochemical. How it is done:
As used herein, the “specific surface area” (SSA) is the total surface area of the taxane particle per unit of taxane mass as measured by the Brunauer-Emmett-Teller (“BET”) isotherm by the following method: a known mass between 200 and 300 mg of the analyte is added to a 30 mL sample tube. […] The automated test is then carried out using the BETWIN® software package and the surface area of each sample is subsequently calculated. As will be understood by those of skill in the art, the “taxane particles” can include both agglomerated taxane particles and non-agglomerated taxane particles; since the SSA is determined on a per gram basis it takes into account both the larger agglomerated and smaller non-agglomerated taxane particles in the composition. The agglomerated taxane particles are defined herein as individual taxane particles that are formed by the agglomeration of smaller particles which fuse together forming the larger individual taxane particles, all of which occurs during the processing of the taxane particles. […]
A known mass between 200 and 300 mg of the analyte was added to a 30 mL sample tube. […] The automated test was then carried out using the BETWIN® software package and the surface area of each sample was subsequently calculated.

For data set [5] the following is noted: not told, pH 4.
Method: Receptor Fluid: The receptor fluid consisted of 60 vol %/40 vol % methanol/water at pH 4 with 0.01 wt % NaN3 (added as a preservative). […] After mixing and degassing the Receptor Fluid it was filtered through a ZapCap CR 0.2 μm membrane under vacuum; the Receptor Fluid, so filtered, was stirred for an additional 20 minutes under vacuum.
For data set [6] the following is noted: IV docetaxel 3 cycles, of 7 tumors measured, day of death or euthanasia.
In data set [7] the test system is UM-UC-3 bladder cancer cell line (ATCC-CRL-1749) tumors. The data set is described as follows: UM-UC-3 xenograft study, H&E histology and immunohistochemistry of tumor site tissue. It is filed as in vivo, mouse.
The test system is the same in data set [8]. Kind of data set: Human bladder cancer (UM-UC-3) mouse xenograft study, tumor volume. It is filed as in vivo. The protocol: (§1) Tumor volume was determined with calipers. […] Animals were weighed 2×/week.
At day 18 after tumor implant, when average tumor size was between 50-325 mm^3, animals were sorted into five groups with equal average tumor sizes and were treated as shown in Table 8 below.
The second treatments (2nd cycle) occurred 7 days following first treatment (1st cycle) and third treatments (3rd cycle) occurred 14 days following the first treatment. The docetaxel solution IV was administered via the tail vein.
Vehicle (Control): Diluted 1 ml of the 1% Polysorbate 80/8% Ethanol in normal saline (0.9% Sodium Chloride for Injection) reconstitution solution with 1.5 mL of normal saline (0.9% Sodium Chloride for Injection, USP). […] Vigorously hand shook the vial with inversions for 1 minute. […] Allowed the suspension to sit undisturbed for at least 5 minutes to reduce entrapped air and foam. […] Vortexed to mix.
Tumor volumes were determined 2×/week for the duration of the study (61 days).
In general terms: A xenograft is tissue or cells of one species grown in another, often human tumour cells in immunodeficient mice.

The conditions of data set [9]: mouse, in vivo, iv. The protocol:
as §1

[10] abbreviates: IV Docetaxel 3 cycles, 2 animals.
Where [11] appears, read: IV Docetaxel 3 cycles, individual animals.

The results in this text go back to patent US20190209515A1, “Treatment of Bladder Cancer by Intratumoral Injection of Taxane Particles” (CRITITECH, INC., priority 2018, published 2019).

Several values for one entry are separate records, joined by “and”; a condition that tells them apart may be missing. Equal values may be shown once. Entries after “also recorded” stand apart in the source; their conditions may differ. Marks after values point to notes of the source that are not given here.

Take `CC(=O)O[C@@]12CO[C@@H]1C[C@H](O)[C@@]1(C)C(=O)[C@H](O)C3=C(C)[C@@H](OC(=O)[C@H](O)[C@@H](NC(=O)OC(C)(C)C)c4ccccc4)C[C@@](O)([C@@H](OC(=O)c4ccccc4)[C@H]21)C3(C)C` [Docetaxel Raw Material, docetaxel]: the “Dissolution (30 min)” value in data set [1] is 11%.
Take `CC(=O)O[C@H]1C(=O)[C@@]2(C)[C@H]([C@H](OC(=O)c3ccccc3)[C@]3(O)C[C@H](OC(=O)[C@H](O)[C@@H](NC(=O)c4ccccc4)c4ccccc4)C(C)=C1C3(C)C)[C@]1(OC(C)=O)CO[C@@H]1C[C@@H]2O` [Paclitaxel Raw Material, paclitaxel]: the “Number Mean” value in [2] is reported as 1.16 um. Moreover, the “Dissolution (30 min)” value in [3] came out at 18%. The “Surface Area” value in [4] turned out to be 10.4 m^2/g.
Turning to `CC(=O)O[C@H]1C(=O)[C@@]2(C)[C@H]([C@H](OC(=O)c3ccccc3)[C@]3(O)C[C@H](OC(=O)[C@H](O)[C@@H](NC(=O)c4ccccc4)c4ccccc4)C(C)=C1C3(C)C)[C@]1(OC(C)=O)CO[C@@H]1C[C@@H]2O` [paclitaxel], in [5], the “solubility in the Receptor Fluid” value is reported as “sufficient to maintain sink conditions”.
As for docetaxel, the “tumors with docetaxel levels above the limit of quantitation (1 ng/g)” value in data set [6] worked out at 1. Further, the “general histological observations (H&E)” value in [7] (Docetaxel solution IV 3 cycles) is “many viable appearing tumor masses with some macrophage and occasional lymphocytic response along with some tumor necrosis”. In [7] (setting [10]), the “Maximum size of viable invasive carcinoma on the slide >10 mm, number of animals” value was 2*; the “Percentage of tumor showing necrosis 11-50%, number of animals” value came to 1; the “Percentage of tumor showing necrosis 50-90%, number of animals” value is on record as 1. The “Macrophage infiltrate density Mild, number of animals” value in data set [7] (IV Docetaxel 3 cycles, 2 animals, H&E and CD68) turned out to be 2. In addition, the “Maximum tumor size on slide” value in data set [7] (setting [11]) is 11 mm and 15 mm. The tumor volume result in data set [8] (Docetaxel solution 30 mg/kg IV, 3 weekly cycles, to Day 61 post implant) is “subsequently increased; also recorded: somewhat effective at treating small tumors, but not very effective in treating large tumors”. Also, in data set [8] (setting [11]), the Necropsy volume was 2872 mm^3 and 1652 mm^3. In addition, in [9], the “initial animal weight loss” value was “generally greater” and the “signs of peripheral neuropathy” value was “greater signs of peripheral neuropathy”.
